Patent publication US10087178B2, “Substituted spiropyrido[1,2-a]pyrazine derivative and medicinal use thereof as HIV integrase inhibitor” (priority 2012, dated 2018)
Where a name gives a salt, the structure may show the parent alone.

What follows are compounds tested on HIV-1 NL4-3 strain (assay: Evaluation of antiviral activity: acute infection system of MT-4 cell with HIV-1 NL4-3 strain). Conditions: Human immunodeficiency virus 1, NL43, MT4, 120 h, MT-4 cells infected with HIV-1 NL4-3 strain (MOI 0.05), cultured 5 days, Cell Titer-Glo; read-out: antiviral activity (EC50).
Format: cell-based

Q: `CCN1C[C@@]2(C[C@H]2COC)n2cc(C(=O)NCc3cccc(Cl)c3F)c(=O)c(O)c2C1=O` [Example T30, (1S,2R)-N-(3-chloro-2-fluorobenzyl)-2′-ethyl-9′-hydroxy-2-(methoxymethyl)-1′,8′-dioxo-1′,2′,3′,8′-tetrahydrospiro[cyclopropane-1,4′-pyrido[1,2-a]pyrazine]-7′-carboxamide] was tested. Which EC50 did it give?
A: 4.4 nM

Q: With `CCOC[C@H]1C[C@@]12CN(C)C(=O)c1c(O)c(=O)c(C(=O)NCc3ccc(OC)c(Cl)c3F)cn12` [Example T31, (1S,2S)-N-(3-chloro-2-fluoro-4-methoxybenzyl)-2-(ethoxymethyl)-9′-hydroxy-2′-methyl-1′,8′-dioxo-1′,2′,3′,8′-tetrahydrospiro[cyclopropane-1,4′-pyrido[1,2-a]pyrazine]-7′-carboxamide] as the compound, how does the EC50 read?
A: 12 nM

Q: `CN(C)C(=O)[C@H]1C[C@@]12CN(C1CC1)C(=O)c1c(O)c(=O)c(C(=O)NCc3cccc(Cl)c3F)cn12` [Example T32, (1S,2S)-N^7′-(3-chloro-2-fluorobenzyl)-2′-cyclopropyl-9′-hydroxy-N^2,N^2-dimethyl-1′,8′-dioxo-1′,2′,3′,8′-tetrahydrospiro[cyclopropane-1,4′-pyrido[1,2-a]pyrazine]-2,7′-dicarboxamide] was tested. Which EC50 did it give?
A: 3.3 nM

Q: How did the EC50 turn out when `CN(C)C(=O)[C@@H]1C[C@]12CN(C1CC1)C(=O)c1c(O)c(=O)c(C(=O)NCc3cccc(Cl)c3F)cn12` [Example T33, (1R,2R)-N^7′-(3-chloro-2-fluorobenzyl)-2′-cyclopropyl-9′-hydroxy-N^2,N^2-dimethyl-1′,8′-dioxo-1′,2′,3′,8′-tetrahydrospiro[cyclopropane-1,4′-pyrido[1,2-a]pyrazine]-2,7′-dicarboxamide] was run?
A: 3.3 nM

Q: How did the EC50 turn out when `COC[C@H]1C[C@@]12CN(C)C(=O)c1c(O)c(=O)c(C(=O)NCc3cc(N4CCCC4=O)cc(Cl)c3F)cn12` [Example T34, (1S,2S)-N-(3-chloro-2-fluoro-5-(2-oxopyrrolidin-1-yl)benzyl)-9′-hydroxy-2-(methoxymethyl)-2′-methyl-1′,8′-dioxo-1′,2′,3′,8′-tetrahydrospiro[cyclopropane-1,4′-pyrido[1,2-a]pyrazine]-7′-carboxamide] was run?
A: 23 nM

Q: For `CCN1C(=O)c2c(O)c(=O)c(C(=O)NCc3ccc(F)cc3F)cn2C[C@@]12C[C@@H]2COC` [Example T40, (1S,2S)-N-(2,4-difluorobenzyl)-2′-ethyl-9′-hydroxy-2-(methoxymethyl)-1′,8′-dioxo-1′,2′,4′,8′-tetrahydrospiro[cylcopropane-1,3′-pyrido[1,2-a]pyrazine]-7′-carboxamide hydrochloride], which EC50 is on record?
A: 1.9 nM

Q: How did the EC50 turn out when `COC[C@H]1C[C@@]12Cn1cc(C(=O)NCc3ccc(F)cc3F)c(=O)c(O)c1C(=O)N2C(C)C` [Example T41, (1S,2S)-N-(2,4-difluorobenzyl)-9′-hydroxy-2′-isopropyl-2-(methoxymethyl)-1′,8′-dioxo-1′,2′,4′,8′-tetrahydrospiro[cyclopropane-1,3′-pyrido[1,2-a]pyrazine]-7′-carboxamide] was run?
A: 2.2 nM

Q: For `CC(C)N1C(=O)c2c(O)c(=O)c(C(=O)NCc3ccc(F)cc3F)cn2C[C@@]12C[C@@H]2CO` [Example T42, (1S,2S)-N-(2,4-difluorobenzyl)-9′-hydroxy-2-(hydroxymethyl)-2′-isopropyl-1′,8′-dioxo-1′,2′,4′,8′-tetrahydrospiro[cyclopropane-1,3′-pyrido[1,2-a]pyrazine]-7′-carboxamide], which EC50 is on record?
A: 3.7 nM

Q: With `CCOC[C@H]1C[C@@]12Cn1cc(C(=O)NCc3ccc(F)cc3F)c(=O)c(O)c1C(=O)N2C(C)C` [Example T43, (1S,2S)-N-(2,4-difluorobenzyl)-2-(ethoxymethyl)-9′-hydroxy-2′-isopropyl-1′,8′-dioxo-1′,2′,4′,8′-tetrahydrospiro[cyclopropane-1,3′-pyrido[1,2-a]pyrazine]-7′-carboxamide] as the compound, how does the EC50 read?
A: 5.3 nM

Same assay, conditions: Human immunodeficiency virus 1, NL43, MT4, 120 h, read-out: antiviral activity (EC50), MT-4 cells infected with HIV-1 NL4-3 strain (MOI 0.05), cultured 5 days, Cell Titer-Glo

Q: For `CC(C)N1C[C@@]2(C[C@H]2CO)n2cc(C(=O)NCc3cccc(Cl)c3F)c(=O)c(O)c2C1=O` [Example T28, (1S,2R)-N-(3-chloro-2-fluorobenzyl)-9′-hydroxy-2-(hydroxymethyl)-2′-isopropyl-1′,8′-dioxo-1′,2′,3′,8′-tetrahydrospiro[cyclopropane-1,4′-pyrido[1,2-a]pyrazine]-7′-carboxamide hydrochloride], which EC50 is on record?
A: 5.2 nM

Q: Which EC50 does the source give for `CCN1C[C@@]2(C[C@H]2CO)n2cc(C(=O)NCc3cccc(Cl)c3F)c(=O)c(O)c2C1=O` [Example T29, (1S,2R)-N-(3-chloro-2-fluorobenzyl)-2′-ethyl-9′-hydroxy-2-(hydroxymethyl)-1′,8′-dioxo-1′,2′,3′,8′-tetrahydrospiro[cyclopropane-1,4′-pyrido[1,2-a]pyrazine]-7′-carboxamide hydrochloride] here?
A: 4.8 nM

Q: How did the EC50 turn out when `CCOC[C@@H]1C[C@]12CN(C)C(=O)c1c(O)c(=O)c(C(=O)NCc3ccc(OC)c(Cl)c3F)cn12` [Example T35, (1R,2R)-N-(3-chloro-2-fluoro-4-methoxybenzyl)-2-(ethoxymethyl)-9′-hydroxy-2′-methyl-1′,8′-dioxo-1′,2′,3′,8′-tetrahydrospiro[cyclopropane-1,4′-pyrido[1,2-a]pyrazine]-7′-carboxamide hydrochloride] was run?
A: 17 nM

Q: Which EC50 does the source give for `COC[C@@H]1C[C@]12CN(C)C(=O)c1c(O)c(=O)c(C(=O)NCc3ccc(OC)c(Cl)c3F)cn12` [Example T36, (1R,2R)-N-(3-chloro-2-fluoro-4-methoxybenzyl)-9′-hydroxy-2-(methoxymethyl)-2′-methyl-1′,8′-dioxo-1′,2′,3′,8′-tetrahydrospiro[cyclopropane-1,4′-pyrido[1,2-a]pyrazine]-7′-carboxamide hydrochloride] here?
A: 10 nM

Q: Which EC50 does the source give for `CCOc1ccc(CNC(=O)c2cn3c(c(O)c2=O)C(=O)N(C)C[C@@]32C[C@@H]2COC)c(F)c1Cl` [Example T37, (1S,2S)-N-(3-chloro-4-ethoxy-2-fluorobenzyl)-9′-hydroxy-2-(methoxymethyl)-2′-methyl-1′,8′-dioxo-1′,2′,3′,8′-tetrahydrospiro[cyclopropane-1,4′-pyrido[1,2-a]pyrazine]-7′-carboxamide hydrochloride] here?
A: 93 nM

Q: `CCOc1ccc(CNC(=O)c2cn3c(c(O)c2=O)C(=O)N(C)C[C@]32C[C@H]2COC)c(F)c1Cl` [Example T38, (1R,2R)-N-(3-chloro-4-ethoxy-2-fluorobenzyl)-9′-hydroxy-2-(methoxymethyl)-2′-methyl-1′,8′-dioxo-1′,2′,3′,8′-tetrahydrospiro[cyclopropane-1,4′-pyrido[1,2-a]pyrazine]-7′-carboxamide hydrochloride] was tested. Which EC50 did it give?
A: 77 nM

Q: Which EC50 does the source give for `CCN1C(=O)c2c(O)c(=O)c(C(=O)NCc3ccc(F)cc3F)cn2C[C@@]12C[C@@H]2CO` [Example T39, (1S,2S)-N-(2,4-difluorobenzyl)-2′-ethyl-9′-hydroxy-2-(hydroxymethyl)-1′,8′-dioxo-1′,2′,4′,8′-tetrahydrospiro[cyclopropane-1,3′-pyrido[1,2-a]pyrazine]-7′-carboxamide hydrochloride] here?
A: 2.8 nM

Q: Which EC50 does the source give for `CCN1C(=O)c2c(O)c(=O)c(C(=O)NCc3cccc(Cl)c3F)cn2C[C@@]12C[C@@H]2CO` [Example T44, (1S,2S)-N-(3-chloro-2-fluorobenzyl)-2′-ethyl-9′-hydroxy-2-(hydroxymethyl)-1′,8′-dioxo-1′,2′,4′,8′-tetrahydrospiro[cyclopropane-1,3′-pyrido[1,2-a]pyrazine]-7′-carboxamide hydrochloride] here?
A: 5.1 nM
